Measurements published in patent publication US12351804B2, “Production method for bifurcated lipid-linked oligonucleotide, and intermediate” (Shionogi & Co., Ltd., priority 2019, dated 2025).

Assay: Stability of the amidite intermediate on storage (UPLC/HPLC analysis)
Format: physicochemical
Protocol: The following conditions were used for the analysis of compound 5.
Mobile phase [A]: 60 mM ammonia-ammonium acetate-containing buffer solution (pH 8.0), Mobile phase [B]: acetonitrile
Gradient: 15% solvent [B] was kept for 0.5 minutes, then linear gradient from 15% to 50% solvent [B] was performed in 2.5 minutes, linear gradient from 50% to 65% solvent [B] was performed in 9 minutes, linear gradient from 65% to 95% solvent [B] was performed in 3 minutes, and 95% solvent [B] was kept for 1 minute.
Column: ACQUITY UPLC (registered trademark) BEH Phenyl (1.7 μm, i.d. 2.1×100 mm) (Waters)
UV Detection wavelength: 295 nm
The following conditions were used for the analysis of comparative compound.
Mobile phase [A]: 10 mM ammonium formate-containing aqueous solution, Mobile phase [B]: methanol
Gradient: 97% solvent [B] was kept for 20 minutes.
Column: Triart (registered trademark) C8 (3 μm, i.d. 4.6×100 mm) (YMC)
Detector: Corona CAD, Corona CAD detection conditions: 60 Hz, BCD polarity+, pressure 35±1 psi, total flow rate 1.53 mL/min

SMILES	Stability (analysis value) (−20° C., after 7 months) [%]	Stability (analysis value) (−20° C., after 71 days) [%]	Stability (analysis value) (−20° C., initial) [%]	Decomposition on storage (−20° C., over time)	Decomposition on storage (40° C. for 50 days)	Stability (analysis value) (40° C., after 7 days) [%]	Stability (analysis value) (40° C., after 50 days) [%]	Stability (analysis value) (40° C., initial) [%]
CCCCCCCCCCCCCCCCCCCC(=O)NCC(CNC(=O)CCCCCCCCCCCCCCCCCCC)OP(OCCC#N)N(C(C)C)C(C)C (centres unmarked) [Comparative compound]	33.8	42.0	54.3	unstable	–	–	–	–
CC(C)N(C(C)C)P(OCCC#N)OC(CN1C(=O)c2ccccc2C1=O)CN1C(=O)c2ccccc2C1=O (centres unmarked) [Compound 5]	–	–	–	–	No decomposition	99.6	99.7	99.6
